This experiment deals with Sodium-dependent serotonin transporter (Homo sapiens) (UniProt P31645). The experiment in a line: In vitro binding affinity towards human serotonin transporter.

The structures appear in SMILES notation.

As usually defined, the Ki is the equilibrium dissociation constant of an inhibitor or competing ligand from its target.

Sodium-dependent serotonin transporter (Homo sapiens), sequence (P31645 whole entry, looked up): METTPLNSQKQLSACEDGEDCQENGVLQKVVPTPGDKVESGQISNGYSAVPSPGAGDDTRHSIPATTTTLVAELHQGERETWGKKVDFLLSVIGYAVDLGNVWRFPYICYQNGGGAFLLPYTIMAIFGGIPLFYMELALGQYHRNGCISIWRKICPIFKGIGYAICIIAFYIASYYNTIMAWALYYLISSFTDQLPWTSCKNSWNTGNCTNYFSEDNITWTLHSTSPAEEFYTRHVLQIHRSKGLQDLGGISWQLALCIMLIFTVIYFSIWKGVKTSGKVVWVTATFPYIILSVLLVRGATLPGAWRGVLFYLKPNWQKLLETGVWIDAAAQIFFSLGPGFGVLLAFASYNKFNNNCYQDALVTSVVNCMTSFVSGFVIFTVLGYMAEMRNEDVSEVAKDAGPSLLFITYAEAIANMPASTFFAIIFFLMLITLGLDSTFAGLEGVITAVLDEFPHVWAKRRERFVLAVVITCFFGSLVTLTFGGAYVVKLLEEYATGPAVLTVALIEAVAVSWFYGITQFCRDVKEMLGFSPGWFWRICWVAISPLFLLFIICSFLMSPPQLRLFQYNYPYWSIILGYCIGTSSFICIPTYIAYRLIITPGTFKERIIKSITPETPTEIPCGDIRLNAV

Compound `COc1cc2c(cc1OC)C1=NOC(CN3CCN(C/C=C(\C)c4ccccc4)CC3)C1CO2` (centres undefined) returned a Ki of 10 nM. In other words, the double-digit nanomolar range. Then `COc1cc2c(cc1OC)C1=NOC(CN3CCN(CC4=Cc5ccccc5C4)CC3)C1CO2` (centres undefined), with 4.1 nM. Then `COc1cc2c(cc1OC)C1=NOC(CN3CCN(CCC(=O)c4ccccc4)CC3)C1CO2` (centres undefined), with 123 nM; and `COc1cc2c(cc1OC)C1=NO[C@@H](CN3CCN(C/C=C\c4ccccc4)CC3)[C@@H]1CO2`, with 35 nM; and `COc1ccc2c(c1)C1=NOC(CN3CCN(C/C=C/c4ccccc4)CC3)C1CO2` (centres undefined), with 14 nM. Then `COc1ccc2c(c1)OCC1C2=NOC1CN1CCN(C/C=C/c2ccccc2)CC1` (centres undefined), with 19 nM. In turn, `COc1cc2c(cc1OC)C1=NOC(CN3CCN(CCCc4ccccc4)CC3)C1CO2` (centres undefined) came in with a Ki of 10 nM. Then `COc1cc2c(cc1OC)C1=NOC(CN3CCN(Cc4ccccc4)CC3)C1CO2` (centres undefined), with 158 nM; and `COc1cc2c(cc1OC)C1=NOC(CN3CCN(Cc4ccc5ncccc5c4)CC3)C1CO2` (centres undefined), with 8.1 nM. Then `COc1cc2c(cc1OC)C1=NOC(CN3CCN(Cc4cccc5ccccc45)CC3)C1CO2` (centres undefined), with 3.9 nM; and `COc1cc2c(cc1OC)C1=NOC(CN3CCN(Cc4cnc5ccccc5c4)CC3)C1CO2` (centres undefined), with 14 nM; and `COc1cc2c(cc1OC)C1=NOC(CN3CCN(CCc4ccccc4)CC3)C1CO2` (centres undefined), with 199 nM. Then `COc1cc2c(cc1OC)C1=NOC(CN3CCN(C/C=C/c4ccccc4)CC3)C1CO2` (centres undefined), with 8.3 nM. For `COc1cc2c(cc1OC)C1=NOC(CN3CCN(Cc4csc5ccccc45)CC3)C1CO2` (centres undefined), the affinity corresponds to a Ki of 7.2 nM. Then `COc1cc2c(cc1OC)C1=NOC(CN3CCN(Cc4cc5ccccc5s4)CC3)C1CO2` (centres undefined), with 5 nM. Then `COc1cc2c(cc1OC)C1=NO[C@@H](CN3CCN(C/C=C/c4ccccc4)CC3)[C@@H]1CO2` (stereo in doubt; (+)5), with 1.2 nM. Then `COc1cc2c(cc1OC)C1=NO[C@@H](CN3CCN(C/C=C(\C)c4ccccc4)CC3)[C@@H]1CO2` (stereo in doubt; (+)15g), with 4.5 nM; and `COc1cc2c(cc1OC)C1=NO[C@@H](CN3CCN(C/C=C/c4ccccc4)CC3)[C@@H]1CO2` (stereo in doubt; (-)5), with 3.4 nM; and `COc1cc2c(cc1OC)C1=NO[C@@H](CN3CCN(C/C=C(\C)c4ccccc4)CC3)[C@@H]1CO2` (stereo in doubt; (-)15g), with 10 nM.

Values taken from ChEMBL document CHEMBL1136157, “Synthesis of 3a,4-dihydro-3H-[1]benzopyrano[4,3-c]isoxazoles, displaying combined 5-HT uptake inhibiting and alpha(2)-adrenoceptor antagonistic activities: a novel series of potential antidepressants” (Bioorg Med Chem Lett, 2003).
